21 compounds from US12448388B2, “PRMT5 inhibitors and uses thereof” (Gilead Sciences, Inc., priority 2023, dated 2025) can be followed below.

Bounds are passed on as bounds.

The test system of the experiment is HCT116 MTAP-deleted cell lines. Kind of experiment: Cell viability assay (CellTiter-Glo, 7 days), HCT116 MTAP-deleted. In kind it is cell-based. The settings on record: Homo sapiens, HCT-116; cell viability, HCT116 MTAP-deleted; class symbols; read-out: CC50. In a few lines:
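PRMT5 inhibitors were serially diluted in DMSO and acoustically spotted as dose-response series into plates before cell seeding. Cells were grown with compound for 7 days at 37 °C, 5% CO2, 90% humidity, then viability was read by CellTiter-Glo luminescence and reported as CC50.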
(In general: Cellular ATP, detected with luciferase, serves as a proxy for viable cell number.)
Turning to `Nc1nc2ccc(C(=O)N3CCOC[C@@H]3c3ccc(C(F)(F)F)cc3)cc2n2cnc(F)c12` [Ff-103, (S)-(4-amino-3-fluoroimidazo[1,5-a]quinoxalin-8-yl)(3-(4-(trifluoromethyl)phenyl)morpholino)methanone], the CC50 was 100 to 1000 nM. As for `Nc1nc2cc(F)c(C(=O)N3CCC[C@@H]4Oc5cc(C(F)(F)F)c(F)cc5[C@@H]43)cc2n2cncc12` [Ff-105, (4-amino-7-fluoroimidazo[1,5-a]quinoxalin-8-yl)((4aS,9bS)-8-fluoro-7-(trifluoromethyl)-3,4,4a,9b-tetrahydrobenzofuro[3,2-b]pyridin-1(2H)-yl)methanone], the CC50 is less than 100 nM. `Cc1ncc2c(N)nc3cnc(C(=O)N4CCC[C@@H]5Oc6c(ccc(C(F)(F)F)c6F)[C@@H]54)cc3n12` [Ff-107, (4-amino-1-methylimidazo[1,5-a]pyrido[3,4-e]pyrazin-8-yl)((4aS,9bS)-6-fluoro-7-(trifluoromethyl)-3,4,4a,9b-tetrahydrobenzofuro[3,2-b]pyridin-1(2H)-yl)methanone]: the CC50 is less than 100 nM. The same measure for `Cc1ncc2c(N)nc3cnc(C(=O)N4CCC[C@@H]5Oc6cc(C(F)(F)F)c(F)cc6[C@@H]54)cc3n12` [Ff-108, (4-amino-1-methylimidazo[1,5-a]pyrido[3,4-e]pyrazin-8-yl)((4aS,9bS)-8-fluoro-7-(trifluoromethyl)-3,4,4a,9b-tetrahydrobenzofuro[3,2-b]pyridin-1(2H)-yl)methanone]: less than 100 nM; for `CC1Oc2cc(C(F)(F)F)ccc2C1N(C)C(=O)c1cc2c(cc1F)nc(N)c1cncn12` (stereo not drawn) [Ff-114, 4-amino-7-fluoro-N-methyl-N-(2-methyl-6-(trifluoromethyl)-2,3-dihydrobenzofuran-3-yl)imidazo[1,5-a]quinoxaline-8-carboxamide]: less than 100 nM. With `Cc1ncn2c1c(N)nc1cnc(C(=O)N3CCC[C@@H]4Oc5cc(C(F)(F)F)c(F)cc5[C@@H]43)cc12` [Ff-116, (4-amino-3-methylimidazo[1,5-a]pyrido[3,4-e]pyrazin-8-yl)((4aS,9bS)-8-fluoro-7-(trifluoromethyl)-3,4,4a,9b-tetrahydrobenzofuro[3,2-b]pyridin-1(2H)-yl)methanone], the CC50 is less than 100 nM. The same measure for `Nc1nc2ccc(C(=O)N3CCC[C@@H]4Oc5c(ccc(C(F)(F)F)c5F)[C@@H]43)cc2n2cncc12` [Ff-118, (4-aminoimidazo[1,5-a]quinoxalin-8-yl)((4aS,9bS)-6-fluoro-7-(trifluoromethyl)-3,4,4a,9b-tetrahydrobenzofuro[3,2-b]pyridin-1(2H)-yl)methanone]: less than 100 nM. The same measure for `Cc1ncn2c1c(N)nc1cnc(C(=O)N3CCC[C@@H]4Oc5c(ccc(C(F)(F)F)c5F)[C@@H]43)cc12` [Ff-119, (4-amino-3-methylimidazo[1,5-a]pyrido[3,4-e]pyrazin-8-yl)((4aS,9bS)-6-fluoro-7-(trifluoromethyl)-3,4,4a,9b-tetrahydrobenzofuro[3,2-b]pyridin-1(2H)-yl)methanone]: less than 100 nM.

Turning to `Nc1nc2cc(F)c(C(=O)N3C[C@@H](F)C[C@@H]4Oc5cc(C(F)(F)F)ccc5[C@@H]43)cc2n2cncc12` [Ff-120, (4-amino-7-fluoroimidazo[1,5-a]quinoxalin-8-yl)((3S,4aS,9bS)-3-fluoro-7-(trifluoromethyl)-3,4,4a,9b-tetrahydrobenzofuro[3,2-b]pyridin-1(2H)-yl)methanone], the CC50 is less than 100 nM.

Take `Cc1ncc2c(N)nc3ccc(C(=O)N4CCC[C@@H]5Oc6c(ccc(C(F)(F)F)c6F)[C@@H]54)cc3n12` [Ff-122, (4-amino-1-methylimidazo[1,5-a]quinoxalin-8-yl)((4aS,9bS)-6-fluoro-7-(trifluoromethyl)-3,4,4a,9b-tetrahydrobenzofuro[3,2-b]pyridin-1(2H)-yl)methanone]: the CC50 is less than 100 nM. In the case of `CN(Cc1ccc2c(c1)OC(F)(F)O2)C(=O)c1ccc2nc(N)c3cncn3c2c1` [Ff-123, 4-amino-N-((2,2-difluorobenzo[d][1,3]dioxol-5-yl)methyl)-N-methylimidazo[1,5-a]quinoxaline-8-carboxamide], the CC50 fell in the range of 100 to 1000 nM. The same measure for `CN(Cc1ccc2c(c1)OC(F)(F)O2)C(=O)c1cc2c(cc1F)nc(N)c1cncn12` [Ff-124, 4-amino-N-((2,2-difluorobenzo[d][1,3]dioxol-5-yl)methyl)-7-fluoro-N-methylimidazo[1,5-a]quinoxaline-8-carboxamide]: 100 to 1000 nM; for `COc1cc(C(F)(F)F)ccc1CN(C)C(=O)c1ccc2nc(N)c3cncn3c2c1` [Ff-125, 4-amino-N-(2-methoxy-4-(trifluoromethyl)benzyl)-N-methylimidazo[1,5-a]quinoxaline-8-carboxamide]: 100 to 1000 nM; for `COCc1cc(C(F)(F)F)ccc1CN(C)C(=O)c1ccc2nc(N)c3cncn3c2c1` [Ff-126, 4-amino-N-(2-(methoxymethyl)-4-(trifluoromethyl)benzyl)-N-methylimidazo[1,5-a]quinoxaline-8-carboxamide]: 100 to 1000 nM.

Take `Cc1nc2cc([C@H]3CC[C@H](C)CN3C(=O)c3ccc4nc(N)c5cnc(C)n5c4c3)ccc2s1` [Ff-127]: the 50% cytotoxic concentration (CC50) is 100 to 1000 nM. The same measure for `Nc1nc2cc(F)c(C(=O)N3CCOCC3c3ccc(C(F)(F)F)cn3)cc2n2cncc12` (stereo not drawn) [Ff-128, (4-amino-7-fluoroimidazo[1,5-a]quinoxalin-8-yl)(3-(5-(trifluoromethyl)pyridin-2-yl)morpholino)methanone]: less than 100 nM. The result for `C[C@@H]1CN(C(=O)c2cc3c(cc2F)nc(N)c2cncn23)[C@@H](c2ccc(C(F)(F)F)cn2)CO1` [Ff-129, (4-amino-7-fluoroimidazo[1,5-a]quinoxalin-8-yl)((2R,5S)-2-methyl-5-(5-(trifluoromethyl)pyridin-2-yl)morpholino)methanone] reads less than 100 nM; that for `C[C@H]1CN(C(=O)c2cc3c(cc2F)nc(N)c2cncn23)[C@@H](c2ccc(C(F)(F)F)cn2)CO1` [Ff-130, (4-amino-7-fluoroimidazo[1,5-a]quinoxalin-8-yl)((2S,5S)-2-methyl-5-(5-(trifluoromethyl)pyridin-2-yl)morpholino)methanone], less than 100 nM; that for `C[C@@H]1COC[C@H](c2ccc(C(F)(F)F)cn2)N1C(=O)c1cc2c(cc1F)nc(N)c1cncn12` [Ff-131, (4-amino-7-fluoroimidazo[1,5-a]quinoxalin-8-yl)((3R,5S)-3-methyl-5-(5-(trifluoromethyl)pyridin-2-yl)morpholino)methanone], less than 100 nM. The same measure for `C[C@@H]1OCCN(C(=O)c2cc3c(cc2F)nc(N)c2cncn23)[C@H]1c1ccc(C(F)(F)F)cn1` [Ff-132, (4-amino-7-fluoroimidazo[1,5-a]quinoxalin-8-yl)((2S,3S)-2-methyl-3-(5-(trifluoromethyl)pyridin-2-yl)morpholino)methanone]: less than 100 nM. For the compound `Nc1nc2cc(F)c(C(=O)N3CCCCC3c3ccc(C(F)(F)F)cn3)cc2n2cncc12` (stereo not drawn) [Ff-133, (4-amino-7-fluoroimidazo[1,5-a]quinoxalin-8-yl)(2-(5-(trifluoromethyl)pyridin-2-yl)piperidin-1-yl)methanone], the CC50 was less than 100 nM.

As a reminder, the CC50 is the concentration that lowers cell viability or growth by half.
